Counter-ions that a name gives are not always drawn.
Test system: production of amyloid beta protein Aβ(1-42) in human WT-APP overexpressing CHO cells
Settings: Homo sapiens, CHO, read-out: Aβ 42 IC50, Geometric mean of 2-8 determinations; human WT-APP overexpressing CHO cells
Description: Cell-Based γ-Secretase Assay with ELISA Readout
The ability of compounds to modulate production of amyloid beta protein Aβ(1-42) was determined using human WT-APP overexpressing CHO cells. Cells were plated at 22,000 cells/100 μL well in 96 well tissue culture treated, clear plates (Falcon) in DMEM/F12 based medium and incubated for 24 hours at 37° C. […] Compounds were added in fresh medium to achieve 1% final DMSO. Appropriate vehicle and inhibitor controls were added to obtain maximum and minimum inhibition values for the assay before the plates were incubated for about 24 hours at 37° C.
Coating of ELISA assay plates was initiated by addition of 50 μL/well of an in house Aβ(1-42) specific antibody at (4 μg/mL) in 0.1 M NaHCO3 (pH 9.0) into black 384-well Maxisorp® plates (Nunc) and incubated overnight at 4° C. […] Ambient temperature incubation was allowed to proceed for a minimum of two hours before washing 2×100 μL with Wash Buffer (Dulbecco's PBS, 0.05% Tween 20). Assay Buffer (Dulbecco's PBS, 1.0% BSA (Sigma A7030), 0.05% Tween 20) 20 μL/well is then added.
After incubation overnight at 37° C., 5% CO2, 40 μL (in duplicate) of experimental conditioned media are transferred into wells of the blocked ELISA plates containing the capture antibody, followed by overnight incubation at 4° C.
After overnight incubation of the ELISA assay plates at 4° C., unbound Aβ peptides were removed thorough (4×100 μL) washes with Wash Buffer.
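Further: Aβ(1-42) released into conditioned medium captured by ELISA after roughly 24 h compound exposure, vehicle and inhibitor controls defining maximal and minimal inhibition.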

Structure (SMILES) | IC50 [nM]
COc1cc(C(=O)NCc2cc3cc(Cl)ccc3[nH]2)ccc1-n1cnc(C)c1 [Example 15, N-[(5-chloro-1H-indol-2-yl)methyl]-3-methoxy-4-(4-methyl-1H-imidazol-1-yl)benzamide] | 547
COc1cc(C(=O)N2CCCC[C@H]2c2ccc(C(F)(F)F)cc2)ccc1-n1cnc(C)c1 [Example 23, (2S)-1-[3-methoxy-4-(4-methyl-1H-imidazol-1-yl)benzoyl]-2-[4-(trifluoro-methyl)phenyl] piperidine] | 838
COc1ccc(OC)c(C2CCN(C(=O)c3ccc(-n4cnc(C)c4)c(OC)c3)C2)c1 (centres unmarked) [Example 109, 1-(4-{[3-(2,5-dimethoxyphenyl)pyrrolidin-1-yl]carbonyl}-2-methoxyphenyl)-4-methyl-1H-imidazole] | 739
COc1cc(C(=O)NCc2ccc(F)c(Cl)c2)ccc1-n1cnc(C)c1 [Example 54, N-(3-chloro-4-fluorobenzyl)-3-methoxy-4-(4-methyl-1H-imidazol-1-yl)benzamide] | 326
COc1cc(C(=O)NCc2csc3ccc(Cl)cc23)ccc1-n1cnc(C)c1 [Example 9, N-[(5-chloro-1-benzothien-3-yl)methyl]-3-methoxy-4-(4-methyl-1H-imidazol-1-yl)benzamide] | 158

Same assay, conditions: Homo sapiens, CHO, read-out: Aβ 42 IC50, Single IC50 determination; human WT-APP overexpressing CHO cells

Structure (SMILES) | IC50 [nM]
COc1cc(C(=O)N2CC[C@@H](Oc3ccccc3C(F)(F)F)C2)ccc1-n1cnc(C)c1 [Example 69, 1-[2-methoxy-4-({(3R)-3-[2-(trifluoromethyl)phenoxy]pyrrolidin-1-yl}carbonyl)phenyl]-4-methyl-1H-imidazole] | 421

Same assay, conditions: Homo sapiens, CHO, read-out: GM Aβ 42B IC50, Geometric Mean of 2-8 Determinations; human WT-APP overexpressing CHO cells

Structure (SMILES) | IC50 [nM]
Cc1cn(-c2ccc(C(=O)NCC3(c4cccc(C(F)(F)F)c4)CCOCC3)cc2F)cn1 [Example 7, 3-fluoro-4-(4-methyl-1H-imidazol-1-yl)-N-({4-[3-(trifluoromethyl)phenyl]tetrahydro-2H-pyran-4-yl}methyl)benzamide, formic acid salt] | 2190

Same assay, conditions: read-out: Aβ 42 IC50; Geometric mean of 2-8 determinations; human WT-APP overexpressing CHO cells

Structure (SMILES) | IC50 [nM]
COc1cc(C(=O)NCCc2cccc(C(F)(F)F)c2)ccc1-n1cnc(C)c1 [Example 24, 3-methoxy-4-(4-methyl-1H-imidazol-1-yl)-N-{2-[3-(tri-fluoromethyl)phenyl]ethyl} benzamide] | 438
COc1cc(C(=O)NCc2ccc(OC(F)(F)F)cc2)ccc1-n1cnc(C)c1 [Example 57, 3-methoxy-4-(4-methyl-1H-imidazol-1-yl)-N-[4-(trifluoro-methoxy)benzyl] benzamide] | 339
COc1cc(C(=O)NCc2sc3ccccc3c2Cl)ccc1-n1cnc(C)c1 [Example 70, N-[(3-chloro-1-benzothien-2-yl)methyl]-3-methoxy-4-(4-methyl-1H-imidazol-1-yl) benzamide] | 425
COc1cc(C(=O)NCc2cc(C)ccc2C)ccc1-n1cnc(C)c1 [Example 82, N-(2,5-dimethylbenzyl)-3-methoxy-4-(4-methyl-1H-imidazol-1-yl) benzamide] | 513
COc1cc(C(=O)NCC2(c3ccc(Cl)cc3)CC2)ccc1-n1cnc(C)c1 [Example 30, N-{[1-(4-chlorophenyl)cyclopropyl]methyl}-3-methoxy-4-(4-methyl-1H-imidazol-1-yl) benzamide] | 231
COc1cc(C(=O)N[C@@H]2CCC[C@@H]2Cc2cccc(F)c2)ccc1-n1cnc(C)c1 [Example 95, N-[(1R,2R)-2-(3-fluorobenzyl)cyclopentyl]-3-methoxy-4-(4-methyl-1H-imidazol-1-yl) benzamide] | 627
COc1cc(C(=O)NCc2sc3c(F)ccc(F)c3c2Cl)ccc1-n1cnc(C)c1 [Example 58, N-[(3-chloro-4,7-difluoro-1-benzothien-2-yl)methyl]-3-methoxy-4-(4-methyl-1H-imidazol-1-yl) benzamide] | 346
